Drawing on US7160888B2, “[1,8]naphthyridin-2-ones and related compounds for the treatment of schizophrenia” (Warner Lambert Company LLC, priority 2003, dated 2007), this text covers Emax for 26 molecules.

For the experiment, the target named is D2 receptor (Homo sapiens, UniProt P14416). Kind of experiment: [3H]Thymidine uptake assay for D2 intrinsic activity. Conditions: test compound 1 μM, 1 μM Quinpirole = 100% intrinsic activity. It is filed as cell-based.
D2 receptor, sequence (P14416 whole entry): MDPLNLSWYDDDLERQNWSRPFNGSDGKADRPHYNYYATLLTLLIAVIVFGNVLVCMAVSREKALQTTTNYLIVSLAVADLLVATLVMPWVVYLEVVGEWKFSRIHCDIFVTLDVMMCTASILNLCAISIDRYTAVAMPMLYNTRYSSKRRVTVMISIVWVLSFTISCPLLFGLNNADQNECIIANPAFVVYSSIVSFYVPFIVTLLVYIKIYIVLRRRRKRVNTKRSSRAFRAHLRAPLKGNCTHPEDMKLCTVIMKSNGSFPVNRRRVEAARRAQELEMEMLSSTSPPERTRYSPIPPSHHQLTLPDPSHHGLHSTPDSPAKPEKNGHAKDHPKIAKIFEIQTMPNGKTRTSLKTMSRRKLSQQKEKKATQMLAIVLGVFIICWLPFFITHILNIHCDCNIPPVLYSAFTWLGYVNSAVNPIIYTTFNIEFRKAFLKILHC

Experimental: D2 intrinsic activity of title compounds of the Examples, below, was determined using the [^3H]thymidine uptake assay described below.
[^3H]Thymidine Uptake Assay for D2 Intrinsic Activity
Cells are serum deprived by washing twice with 200 μl of serum-free media. 90 μl serum-free media was added to each well. The plates ware incubated for two to three hours. 10 μl of serum-containing media, as a positive control, vehicle (serum-free media), negative control (an antagonist) or test compounds and standards (10 μl of a 10 μM solution for a final concentration of 1 μM) in serum-free media were added to wells. The plates are returned to the incubator. Eighteen hours later [^3H]thymidine is added (0.5 μCi/well in 10 μl of serum-free media) and the plates are returned to the incubator. […] The plates are returned to the incubator, once again. One hour later the assay is terminated by rapid filtration through Whatman GF/C glass fiber filters. Filters are washed four times with 500 ml of 50 mM Tris-HCl pH 7.0 buffer, for example, using a Brandel MLR-96T cell harvester. […] Intrinsic activity is defined as total uptake (1 μM Quinpirole) minus serum-free media (no uptake). Test compounds are compared to 1 μM Quinpirole (full DA agonist), which was classified as 100% intrinsic activity.

For the molecule `CC(C)Oc1ccccc1N1CCN(CCCCOc2ccc3c(n2)NC(=O)CC3)CC1` [Example A26, 7-{4-[4-(2-Isopropoxy-phenyl)-piperazin-1-yl]-butoxy}-3,4-dihydro-1H-[1,8]naphthyridin-2-one], the Emax – broadly, the greatest response seen or fitted, relative to the assay's reference – at 1 µM (Table 1) worked out at 33%.
On to `Cn1ccc2c(N3CCN(CCCCOc4ccc5c(n4)NC(=O)CC5)CC3)cccc21` [Example A26′, 7-{4-[4-(1-Methyl-1H-indol-4-yl)-piperazin-1-yl]-butoxy}-3,4-dihydro-1H-[1,8]naphthyridin-2-one], for which the Emax at 1 µM (Table 2) was found to be 12%.
As for `CC(C)COc1ccccc1N1CCN(CCCCOc2ccc3c(n2)NC(=O)CC3)CC1` [Example A27, 7-{4-[4-(2-Isobutoxy-phenyl)-piperazin-1-yl]-butoxy}-3,4-dihydro-1H-[1,8]naphthyridin-2-one], where the note is “Table 1”, the maximum response (Emax) at 1 µM was 38%.
Where the note is “Table 2”, `Cc1cc2c(N3CCN(CCCCOc4ccc5c(n4)NC(=O)CC5)CC3)cccc2[nH]1` [Example A27′, 7-{4-[4-(2-Methyl-1H-indol-4-yl)-piperazin-1-yl]-butoxy}-3,4-dihydro-1H-[1,8]naphthyridin-2-one] showed an Emax at 1 µM of 21%.
For `O=C1CCc2ccc(OCCCCN3CCN(c4cccc5sccc45)CC3)nc2N1` [Example A28′, 7-[4-(4-Benzo[b]thiophen-4-yl-piperazin-1-yl)-butoxy]-3,4-dihydro-1H-[1,8]naphthyridin-2-one], the Emax at 1 µM (Table 2) is 21%.
In the case of `CCc1c(Cl)cccc1N1CCN(CCCCOc2ccc3c(n2)NC(=O)CC3)CC1` [Example A29, 7-{4-[4-(3-Chloro-2-ethyl-phenyl)-piperazin-1-yl]-butoxy}-3,4-dihydro-1H-[1,8]naphthyridin-2-one], the Emax at 1 µM (Table 1) turned out to be 20%.
The molecule `O=C1CCc2ccc(OCCCCN3CCN(c4cccc5nonc45)CC3)nc2N1` [Example A29′, 7-[4-(4-Benzo[1,2,5]oxadiazol-4-yl-piperazin-1-yl)-butoxy]-3,4-dihydro-1H-[1,8]naphthyridin-2-one] yielded an Emax at 1 µM (Table 2) of 33%.
For the setting “Table 1”, `CC(=O)c1c(F)cccc1N1CCN(CCCCOc2ccc3c(n2)NC(=O)CC3)CC1` [Example A30, 7-{4-[4-(2-Acetyl-3-fluoro-phenyl)-piperazin-1-yl]-butoxy}-3,4-dihydro-1H-[1,8]naphthyridin-2-one] registered a maximal effect (Emax) at 1 µM of 11%.
`O=C1CCc2ccc(OCCCCN3CCN(c4cccc5nsnc45)CC3)nc2N1` [Example A30′, 7-[4-(4-Benzo[1,2,5]thiadiazol-4-yl-piperazin-1-yl)-butoxy]-3,4-dihydro-1H-[1,8]naphthyridin-2-one] registered a maximal effect (Emax) at 1 µM (Table 2) of 41%.
On to `CCc1c(F)cccc1N1CCN(CCCCOc2ccc3c(n2)NC(=O)CC3)CC1` [Example A31, 7-{4-[4-(2-Ethyl-3-fluoro-phenyl)-piperazin-1-yl]-butoxy}-3,4-dihydro-1H-[1,8]naphthyridin-2-one], for which the Emax at 1 µM (Table 1) worked out at 26%.
Regarding `CN1CCCc2c1cccc2N1CCN(CCCCOc2ccc3c(n2)NC(=O)CC3)CC1` [Example A32′, 7-{4-[4-(1-Methyl-1,2,3,4-tetrahydro-quinolin-5-yl)-piperazin-1-yl]-butoxy}-3,4-dihydro-1H-[1,8]naphthyridin-2-one], where the note is “Table 2”, the Emax at 1 µM was determined as 27%.
For `CC(=O)c1cccc(N2CCN(CCCCOc3ccc4c(n3)NC(=O)CC4)CC2)c1` [Example A33, 7-{4-[4-(3-Acetyl-phenyl)-piperazin-1-yl]-butoxy}-3,4-dihydro-1H-[1,8]naphthyridin-2-one], the Emax at 1 µM (Table 1) was 31%.
Where the note is “Table 2”, `CCN1CCCc2c1cccc2N1CCN(CCCCOc2ccc3c(n2)NC(=O)CC3)CC1` [Example A33′, 7-{4-[4-(1-Ethyl-1,2,3,4-tetrahydro-quinolin-5-yl)-piperazin-1-yl]-butoxy}-3,4-dihydro-1H-[1,8]naphthyridin-2-one] had an Emax at 1 µM of 18%.
For the setting “Table 1”, `CC(=O)c1ccccc1N1CCN(CCCCOc2ccc3c(n2)NC(=O)CC3)CC1` [Example A34, 7-{4-[4-(2-Acetyl-phenyl)-piperazin-1-yl]-butoxy}-3,4-dihydro-1H-[1,8]naphthyridin-2-one] displayed an Emax at 1 µM of 8%.
Regarding `O=C1CCc2ccc(OCCCCN3CCN(c4cccc5cccnc45)CC3)nc2N1` [Example A34′, 7-[4-(4-Quinolin-8-yl-piperazin-1-yl)-butoxy]-3,4-dihydro-1H-[1,8]naphthyridin-2-one], where the note is “Table 2”, the Emax at 1 µM was 38%.
In the case of `CCc1ccccc1N1CCN(CCCCOc2ccc3c(n2)NC(=O)CC3)CC1` [Example A35, 7-{4-[4-(2-Ethyl-phenyl)-piperazin-1-yl]-butoxy}-3,4-dihydro-1H-[1,8]naphthyridin-2-one], the Emax at 1 µM (Table 1) was determined as 24%.
As for `O=C1CCc2ccc(OCCCCN3CCN(c4cccc5ncccc45)CC3)nc2N1` [Example A35′, 7-[4-(4-Quinolin-5-yl-piperazin-1-yl)-butoxy]-3,4-dihydro-1H-[1,8]naphthyridin-2-one], the Emax at 1 µM (Table 2) was determined as 20%.
Same read-out and setting: for `O=C1CCc2ccc(OCCCCN3CCN(c4cccc5ccncc45)CC3)nc2N1` [Example A36′, 7-[4-(4-Isoquinolin-8-yl-piperazin-1-yl)-butoxy]-3,4-dihydro-1H-[1,8]naphthyridin-2-one] the value was 62%.
Under “Table 1”, `O=C1CCc2ccc(OCCCCN3CCN(c4ccccc4C(F)(F)F)CC3)nc2N1` [Example A37, 7-{4-[4-(2-Trifluoromethyl-phenyl)-piperazin-1-yl]-butoxy}-3,4-dihydro-1H-[1,8]naphthyridin-2-one] returned an Emax at 1 µM of 46%.
On to `O=C1CCc2ccc(OCCCCN3CCN(c4cccc5cnccc45)CC3)nc2N1` [Example A37′, 7-[4-(4-Isoquinolin-5-yl-piperazin-1-yl)-butoxy]-3,4-dihydro-1H-[1,8]naphthyridin-2-one], for which the Emax at 1 µM (Table 2) was determined as 45%.
Take `O=C1CCc2ccc(OCCCCN3CCN(c4cccc(C(F)(F)F)c4)CC3)nc2N1` [Example A38, 7-{4-[4-(3-Trifluoromethyl-phenyl)-piperazin-1-yl]-butoxy}-3,4-dihydro-1H-[1,8]naphthyridin-2-one]: under “Table 1”, the Emax at 1 µM was found to be 23%.
With `O=C1CCc2ccc(OCCCCN3CCN(c4cccc5ncc(F)cc45)CC3)nc2N1` [Example A38′, 7-{4-[4-(3-Fluoro-quinolin-5-yl)-piperazin-1-yl]-butoxy}-3,4-dihydro-1H-[1,8]naphthyridin-2-one], the Emax at 1 µM (Table 2) is 20%.
In turn, `O=C1CCc2ccc(OCCCCN3CCN(c4ccccc4)CC3)nc2N1` [Example A39, 7-[4-(4-phenyl-piperazin-1-yl)-butoxy]-3,4-dihydro-1H-[1,8]naphthyridin-2-one] yielded an Emax at 1 µM (Table 1) of 56%.
The molecule `O=C1CCc2ccc(OCCCCN3CCN(c4ccc(F)cc4)CC3)nc2N1` [Example A40, 7-{4-[4-(4-Fluoro-phenyl)-piperazin-1-yl]-butoxy}-3,4-dihydro-1H-[1,8]naphthyridin-2-one] returned an Emax at 1 µM (Table 1) of 32%.
Molecule `Cc1ccc2cccc(N3CCN(CCCCOc4ccc5c(n4)NC(=O)CC5)CC3)c2n1` [Example A40′, 7-{4-[4-(2-Methyl-quinolin-8-yl)-piperazin-1-yl]-butoxy}-3,4-dihydro-1H-[1,8]naphthyridin-2-one] showed an Emax at 1 µM (Table 2) of 30%.
The molecule `O=C1CCc2ccc(OCCCCN3CCN(c4ccc(F)cc4F)CC3)nc2N1` [Example A41, 7-{4-[4-(2,4-Difluoro-phenyl)-piperazin-1-yl]-butoxy}-3,4-dihydro-1H-[1,8]naphthyridin-2-one] came in with an Emax at 1 µM (Table 1) of 28%.
